In patent US11078213B2, “Thienopyrimidine compound, preparation method thereof, pharmaceutical composition and application thereof” (HONGYUN BIOTECH CO., LTD., priority 2016, dated 2021):

Biological target: T1, NPM-ALK-BaF3 (Homo sapiens, UniProt Q9UM73)
T1 construct: NPM (nuclear phosphoprotein / nucleophosmin, NPM1, P06748) fusion partner; expressed in transfected cells; host or cells: BaF3; the other entry of the earlier key: NPM1 (P06748, Nucleophosmin)
Assay: Growth inhibition of BaF3 cells stably transfected with kinase NPM-ALK (MTS)
Assay type: cell-based
Conditions: compound concentration 3.3 μM, read-out: cell growth inhibition rate, NPM-ALK
Method: The specific test method is given as follows:
2) Reagent: MTS reaction solution (containing 2 mg/mL of MTS [3-(4,5-dimethylthiazol-2-yl)-5-(3-carboxymethoxyphenyl)-2-(4-sulfophenyl)-2H-tetra zolium, inner Salt]; 100 µg/mL PES ([…])).

T1 sequence (Q9UM73 with tags, fused parts or gaps): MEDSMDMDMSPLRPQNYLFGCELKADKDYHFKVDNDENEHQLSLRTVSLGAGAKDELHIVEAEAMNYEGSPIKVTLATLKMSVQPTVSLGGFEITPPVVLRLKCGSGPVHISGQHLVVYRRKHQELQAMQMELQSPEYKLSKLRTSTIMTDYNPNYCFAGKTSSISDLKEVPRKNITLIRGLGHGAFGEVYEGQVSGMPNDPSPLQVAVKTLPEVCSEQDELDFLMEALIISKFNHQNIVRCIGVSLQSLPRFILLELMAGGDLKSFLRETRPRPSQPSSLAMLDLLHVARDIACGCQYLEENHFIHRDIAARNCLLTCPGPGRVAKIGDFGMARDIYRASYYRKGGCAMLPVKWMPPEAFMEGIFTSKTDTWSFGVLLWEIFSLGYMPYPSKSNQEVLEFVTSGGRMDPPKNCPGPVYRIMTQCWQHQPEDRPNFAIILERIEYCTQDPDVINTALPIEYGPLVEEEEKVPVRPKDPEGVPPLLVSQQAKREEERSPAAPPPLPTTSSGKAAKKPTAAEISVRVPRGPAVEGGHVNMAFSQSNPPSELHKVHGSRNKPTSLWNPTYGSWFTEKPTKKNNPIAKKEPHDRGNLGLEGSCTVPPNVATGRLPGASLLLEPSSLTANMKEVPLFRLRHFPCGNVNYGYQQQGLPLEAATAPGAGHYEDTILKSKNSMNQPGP

Structure (SMILES)	inhibition at 3.3 µM [%]
COc1cc2c(cc1Nc1nc(Nc3ccccc3NS(C)(=O)=O)c3sccc3n1)N(C(=O)CN(C)C)CC2 [IH-1]	12.7
COc1cc(N2CCC(N3CCN(C)CC3)CC2)ccc1Nc1nc(Nc2cn(C)nc2S(=O)(=O)C(C)C)c2sccc2n1 [IC-2]	55
CS(=O)(=O)Nc1ccccc1Nc1nc(Nc2ccc(S(N)(=O)=O)cc2)nc2ccsc12 [IH-7]	15.1
CCOc1cc(C(=O)N2CCC(N3CCN(C)CC3)CC2)ccc1Nc1nc(Nc2ccccc2S(=O)(=O)C(C)C)c2sccc2n1 [IB-13]	90.3
CC(C)S(=O)(=O)c1ccccc1Nc1nc(Nc2ccc(N3CCC(O)CC3)nc2)nc2ccsc12 [IB-23]	96.7
CNC(=O)c1ccccc1Nc1nc(Nc2ccc(N3CCN(C)CC3)cc2)nc2ccsc12 [II-2]	28.1
COc1cc(N2CCC(N3CCCC3)CC2)ccc1Nc1nc(Nc2ccccc2S(=O)(=O)C(C)C)c2sccc2n1 [IB-7]	92.8
CC(C)S(=O)(=O)c1ccccc1Nc1nc(Nc2ccc(N3CCOCC3)cc2)nc2ccsc12 [IB-15]	83.3
CC(C)S(=O)(=O)c1nn(C)cc1Nc1nc(Nc2ccc(N3CCN(C)CC3)cc2)nc2ccsc12 [IC-3]	46.5
CNC(=O)c1ccccc1Nc1nc(Nc2ccc(N3CCN(C)CC3)cc2OC)nc2ccsc12 [II-3]	84.1
COc1cc(N2CCC(N3CCN(C)CC3)CC2)ccc1Nc1nc(Nc2ccccc2NS(C)(=O)=O)c2sccc2n1 [IH-2]	85.1
CS(=O)(=O)c1ccccc1CNc1nc(Nc2ccc(N3CCC(O)CC3)cc2)nc2ccsc12 [IL-4]	45.8
COc1cc(N2CCN(C)CC2)ccc1Nc1nc(Nc2ccccc2NS(C)(=O)=O)c2sccc2n1 [IH-3]	79.2
CC(C)Oc1cc(N2CCC(O)CC2)ccc1Nc1nc(Nc2ccccc2S(=O)(=O)C(C)C)c2sccc2n1 [IB-18]	66.1
COc1cc(C2CCN(C)CC2)c(C)cc1Nc1nc(Nc2ccccc2S(C)(=O)=O)c2sccc2n1 [IA-5]	90.9
COc1cc2c(cc1Nc1nc(NCc3ccccc3S(=O)(=O)C(C)C)c3sccc3n1)N(C(=O)CN(C)C)CC2 [IM-1]	94.2
CS(=O)(=O)Nc1ccccc1Nc1nc(Nc2ccc(N3CCC(O)CC3)cc2)nc2ccsc12 [IH-4]	26.7
COc1cc(N2CCC(N3CCN(C)CC3)CC2)ccc1Nc1nc(Nc2cccc(NS(C)(=O)=O)c2)c2sccc2n1 [IG-2]	17.4
CC(C)S(=O)(=O)c1ccccc1Nc1nc(Nc2ccc(C(=O)N3CCN(C)CC3)cc2)nc2ccsc12 [IB-26]	97.3
COc1cc2c(cc1Nc1nc(Nc3cccc(NS(C)(=O)=O)c3)c3sccc3n1)N(C(=O)CN(C)C)CC2 [IG-1]	22.2
COc1cc2c(cc1Nc1nc(NCc3ccccc3S(C)(=O)=O)c3sccc3n1)N(C(=O)CN(C)C)CC2 [IL-1]	73.7
CNC(=O)c1ccccc1Nc1nc(Nc2ccc(N3CCC(N4CCN(C)CC4)CC3)cc2OC)nc2ccsc12 [II-1]	46.3
COc1cc(N2CCC(N3CCN(C)CC3)CC2)ccc1Nc1nc(NCc2ccccc2S(=O)(=O)C(C)C)c2sccc2n1 [IM-2]	20.6
CCOc1cc(N2CCN(C)CC2)ccc1Nc1nc(Nc2ccccc2C(=O)NC)c2sccc2n1 [II-4]	46.6
COC(=O)c1cccc(Nc2nc(Nc3cc4c(cc3OC)CCN4C(=O)CN(C)C)nc3ccsc23)c1 [ID-1]	73.4
CC(C)S(=O)(=O)c1ccccc1Nc1nc(Nc2ccc(N3CCN(C(=O)OC(C)(C)C)CC3)cc2)nc2ccsc12 [IB-25]	61.4
CC(C)S(=O)(=O)c1ccccc1Nc1nc(Nc2ccc(C(=O)N3CCC(N4CCN(C)CC4)CC3)cc2)nc2ccsc12 [IB-29]	97.5

Structure (SMILES)	inhibition at 3.3 µM [%]
CC(C)S(=O)(=O)c1ccccc1Nc1nc(Nc2ccc(S(=O)(=O)N3CCN(C)CC3)cc2)nc2ccsc12 [IB-21]	72.1
CC(C)S(=O)(=O)c1ccccc1Nc1nc(Nc2ccc(N3CCOCC3)nc2)nc2ccsc12 [IB-16]	77.5
CC(C)S(=O)(=O)c1ccccc1CNc1nc(Nc2ccc(N3CCC(O)CC3)cc2)nc2ccsc12 [IM-4]	53.1
COc1cc(N2CCN(C)CC2)ccc1Nc1nc(Nc2ccccc2S(=O)(=O)C(C)C)c2sccc2n1 [IB-8]	83.7
CS(=O)(=O)Nc1cccc(Nc2nc(Nc3ccc(S(N)(=O)=O)cc3)nc3ccsc23)c1 [IG-6]	3.07
CC(C)S(=O)(=O)c1ccccc1Nc1nc(Nc2ccc(N3CCC(N4CCN(C)CC4)CC3)cc2)nc2ccsc12 [IB-6]	93.2
CC(C)S(=O)(=O)c1ccccc1Nc1nc(Nc2ccc(OCc3ccccn3)cc2)nc2ccsc12 [IB-20]	66
CCOc1cc(N2CCC(O)CC2)ccc1Nc1nc(Nc2ccccc2S(=O)(=O)C(C)C)c2sccc2n1 [IB-17]	86
CC(C)S(=O)(=O)c1ccccc1Nc1nc(Nc2ccc(S(=O)(=O)N3CCC(O)CC3)cc2)nc2ccsc12 [IB-11]	60.9
COc1cc(N2CCC(N3CCN(C)CC3)CC2)ccc1Nc1nc(NCc2ccccc2S(C)(=O)=O)c2sccc2n1 [IL-2]	54.8
CC(C)S(=O)(=O)c1ccccc1Nc1nc(Nc2ccc(N3CCC(O)CC3)cc2)nc2ccsc12 [IB-4]	96
CN1CCN(c2ccc(Nc3nc(NCc4ccccc4S(C)(=O)=O)c4sccc4n3)cc2)CC1 [IL-3]	56.8
Cc1cc(Nc2nc(Nc3ccccc3S(=O)(=O)C(C)C)c3sccc3n2)c(OC(C)C)cc1C1CCN(C)CC1 [IB-9]	88.5
CNC(=O)c1ccccc1Nc1nc(Nc2ccc(N3CCC(O)CC3)cc2)nc2ccsc12 [II-5]	31.6
CCOc1cc(N2CCN(C)CC2)ccc1Nc1nc(Nc2ccccc2S(=O)(=O)C(C)C)c2sccc2n1 [IB-28]	96.5
CC(C)S(=O)(=O)c1nn(C)cc1Nc1nc(Nc2ccc(N3CCC(O)CC3)cc2)nc2ccsc12 [IC-4]	53.2
CC(C)S(=O)(=O)c1ccccc1Nc1nc(Nc2ccc(N3CCC(O)CC3)cn2)nc2ccsc12 [IB-12]	55.9
COc1cc(N2CCC(O)CC2)ccc1Nc1nc(Nc2ccccc2S(=O)(=O)C(C)C)c2sccc2n1 [IB-19]	84.9
COC(=O)c1cccc(Nc2nc(Nc3ccc(N4CCN(C)CC4)cc3OC)nc3ccsc23)c1 [ID-2]	44.7
CC(C)S(=O)(=O)c1ccccc1Nc1nc(Nc2ccc(N3CCN(C)CC3)cn2)nc2ccsc12 [IB-24]	97.4
COc1cc2c(cc1Nc1nc(Nc3cn(C)nc3S(=O)(=O)C(C)C)c3sccc3n1)N(C(=O)CN(C)C)CC2 [IC-1]	82.4
CS(=O)(=O)Nc1cccc(Nc2nc(Nc3ccc(N4CCC(O)CC4)cc3)nc3ccsc23)c1 [IG-3]	21.6
CC(C)S(=O)(=O)c1ccccc1CNc1nc(Nc2ccc(N3CCN(C)CC3)cc2)nc2ccsc12 [IM-3]	52.5
CC(C)S(=O)(=O)c1ccccc1Nc1nc(Nc2ccc(N3CCN(C)CC3)cc2)nc2ccsc12 [IB-3]	94.2
COc1cc(C2CCN(C)CC2)c(C)cc1Nc1nc(Nc2ccccc2S(=O)(=O)C(C)C)c2sccc2n1 [IB-5]	88.9
COc1cc(C(=O)N2CCC(N3CCN(C)CC3)CC2)ccc1Nc1nc(Nc2ccccc2S(=O)(=O)C(C)C)c2sccc2n1 [IB-22]	87.3
